From US4166911A, “Pyridazinyl-ergoline compounds having neuroleptic activity” (Farmitalia Carlo Erba S.p.A., priority 1977, dated 1979)

Test system: aggregated mice
Test: not given
Details: result in words, literature; cited from earlier work
In the case of `CN(C)CCCN1c2ccccc2Sc2ccc(Cl)cc21` [chlorpromazine], the “reduction of amphetamine toxicity in aggregated mice” value is given as “clearly reduce the amphetamine toxicity in aggregated mice”.

Test system: aggregated mice
Test: protection of aggregated mice from amphetamine toxicity (death rate after 24 hours)
Details: Mus musculus, ip
Compound `COC12C[C@@H](CNc3ccc(Cl)nn3)CN(C)[C@@H]1Cc1cn(C)c3cccc2c13` (stereo partly drawn) [355/902, 10-Methoxy-8β-(6'-chloro-3'-pyridazinylaminomethyl)-1,6-dimethyl-ergoline] has an ED50 of 16.4 mg/kg.
Compound `COC12C[C@@H](CSc3ccc(O)nn3)CN(C)[C@@H]1Cc1cn(C)c3cccc2c13` (stereo partly drawn) [/914, 10-Methoxy-1,6-dimethyl-8β-(6'-hydroxy-3'-pyridazinylmercaptomethyl)ergoline] has an ED50 of 16.7 mg/kg.
`COc1ccc(NC[C@H]2CN(C)[C@@H]3Cc4cn(C)c5cccc(c45)C3(OC)C2)nn1` (stereo partly drawn) [/903, 10-Methoxy-8β-(6'-methoxy-3'-pyridazinylaminomethyl)-1,6-dimethylergoline] gave an ED50 of 30 mg/kg.
`COC12C[C@@H](CSc3cccnn3)CN(C)[C@@H]1Cc1cn(C)c3cccc2c13` (stereo partly drawn) [/927, 10-Methoxy-1,6-dimethyl-8β-(3'-pyridazinylmercaptomethyl)ergoline] gave an ED50 of 30 mg/kg.
In the case of `COC12C[C@@H](CNc3cccnn3)CN(C)[C@@H]1Cc1cn(C)c3cccc2c13` (stereo partly drawn) [/904, 10-Methoxy-8β-(3'-pyridazinylaminomethyl)-1,6-dimethylergoline], the ED50 is reported as 30 mg/kg.
